The values below are quoted from earlier work in patent US20220395499A1, “C[…] AFTER 5HT2A AGONISTS ADMINISTRATION” (Mind Medicine, Inc., priority 2021, published 2022).

Read-outs that look alike come from different tables or passages of the source.

For series [1] the following is noted: LSD alone, no dose stated.
The target of series [2] is T1, 5HT2A receptor (Homo sapiens, UniProt P28223).
T1 construct: host or cells: human subjects (in vivo, oral dosing)

Test in series [3]: not given
The source holds these as a separate data set.

The target of series [4] is CYP3A4 (Homo sapiens, UniProt P08684).
Series [5] concerns the target 5-HT2B receptors (Homo sapiens, UniProt P41595).
The test system of series [6] is adrenergic, dopaminergic, histaminergic, or muscarinic receptors.
Setting [7] is: single 34-mg dose of pimavanserin.

T1 sequence (P28223 whole entry): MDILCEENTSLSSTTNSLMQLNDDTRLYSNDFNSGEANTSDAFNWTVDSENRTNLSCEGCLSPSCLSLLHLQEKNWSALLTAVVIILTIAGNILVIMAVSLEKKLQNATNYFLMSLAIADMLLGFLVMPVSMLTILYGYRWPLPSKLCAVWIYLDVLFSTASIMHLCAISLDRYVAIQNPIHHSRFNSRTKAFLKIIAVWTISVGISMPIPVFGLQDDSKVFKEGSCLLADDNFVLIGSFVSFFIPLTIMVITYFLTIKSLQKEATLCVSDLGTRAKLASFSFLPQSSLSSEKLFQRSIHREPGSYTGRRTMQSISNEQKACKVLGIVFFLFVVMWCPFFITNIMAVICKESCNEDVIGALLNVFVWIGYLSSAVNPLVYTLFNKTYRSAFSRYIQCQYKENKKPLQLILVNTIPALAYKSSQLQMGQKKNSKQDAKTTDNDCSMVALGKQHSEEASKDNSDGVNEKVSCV
5-HT2B receptors, sequence (P41595 whole entry): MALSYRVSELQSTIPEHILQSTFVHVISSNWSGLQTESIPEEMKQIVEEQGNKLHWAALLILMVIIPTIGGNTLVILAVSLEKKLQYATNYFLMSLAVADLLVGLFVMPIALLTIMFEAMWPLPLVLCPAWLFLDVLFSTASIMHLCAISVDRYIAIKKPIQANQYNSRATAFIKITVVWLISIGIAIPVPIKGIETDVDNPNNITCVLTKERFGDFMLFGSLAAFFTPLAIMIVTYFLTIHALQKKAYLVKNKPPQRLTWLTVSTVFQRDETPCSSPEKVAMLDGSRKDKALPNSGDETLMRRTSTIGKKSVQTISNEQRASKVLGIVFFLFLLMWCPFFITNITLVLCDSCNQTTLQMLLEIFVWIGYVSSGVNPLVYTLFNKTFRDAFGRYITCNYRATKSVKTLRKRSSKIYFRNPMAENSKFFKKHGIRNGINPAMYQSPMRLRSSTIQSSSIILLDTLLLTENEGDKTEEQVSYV
CYP3A4, sequence (P08684 whole entry): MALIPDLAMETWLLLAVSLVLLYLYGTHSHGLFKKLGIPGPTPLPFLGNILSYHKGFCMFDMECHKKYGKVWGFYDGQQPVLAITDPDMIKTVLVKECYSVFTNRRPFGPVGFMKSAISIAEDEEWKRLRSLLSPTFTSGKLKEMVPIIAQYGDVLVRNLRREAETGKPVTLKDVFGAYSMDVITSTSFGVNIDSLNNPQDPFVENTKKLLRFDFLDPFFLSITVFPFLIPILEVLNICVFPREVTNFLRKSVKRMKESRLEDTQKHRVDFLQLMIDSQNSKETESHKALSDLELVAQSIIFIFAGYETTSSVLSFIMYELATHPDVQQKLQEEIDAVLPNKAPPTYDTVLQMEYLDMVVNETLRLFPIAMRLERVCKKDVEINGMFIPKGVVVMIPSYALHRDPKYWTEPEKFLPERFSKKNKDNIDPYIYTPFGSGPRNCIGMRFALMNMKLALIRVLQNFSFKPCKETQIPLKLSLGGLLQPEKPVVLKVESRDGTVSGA

Regarding `CCN(CC)C(=O)[C@@H]1C=C2c3cccc4[nH]cc(c34)C[C@H]2N(C)C1` [LSD, Lysergic acid diethylamide], in series [1], the “usual duration of action” value is 8 to 12 h.
As to `O=C(c1ccc(F)cc1)C1CCN(CCn2c(=O)[nH]c3ccccc3c2=O)CC1` [ketanserin], the “effect on the LSD experience” value was “prevented the LSD experience” in series [2] (ketanserin 40 mg orally 1 hour prior to a high dose of LSD of 200 μg, Liechti) and “prevent the LSD experience almost completely” in series [2] (ketanserin 40 mg orally 1 hour prior to oral LSD at a moderate dose (70-100 μg), Preller et al., 2017).
Consider `CC(C)COc1ccc(CNC(=O)N(Cc2ccc(F)cc2)C2CCNCC2)cc1` [AC-279], for which the “half-life of the active N-desmethylated metabolite” value (metabolite of pimavanserin) is 200 h.
For `CC(C)COc1ccc(CNC(=O)N(Cc2ccc(F)cc2)C2CCN(C)CC2)cc1` [Pimavanserin, pimavanserin], the plasma protein binding result in series [3] is reported as “highly bound to plasma protein”. Also, the “CYP3A4 inhibition or induction” value in series [4] was “does not cause significant CYP3A4 inhibition or induction”. The “affinity for 5-HT2B receptors” value in series [5] is reported as “no affinity”. Also, the “antagonism of adrenergic, dopaminergic, histaminergic, or muscarinic receptors” value in series [6] was “does not induce clinically significant antagonism”. Under setting [7], the half-life entry was “approximately 57 hours”, the “mean (SD) apparent volume of distribution” value was 2,173 (307) L and the “time to maximum plasma concentration” value is reported as “six”.
